The source of these data is US10039713B1, “Drug-loaded ganglioside micelle and the preparation method and use thereof” (Chongqing University, priority 2017, dated 2018).

This data set deals with blood brain barrier. Description: Evaluation on intracranial blood brain barrier penetrating effect of a GM1 micelle (animal living body fluorescence imaging). Format: in vivo. The following applies: healthy mice, intravenous injection of tails, FIG. 2. How it is done: According to the preparation method of DOX-GM1 in the example 1, a fluorescent dye DiR-GM1 mixed micelle was prepared according to the same method. DiR-GM1 micelle and free-DiR were intravenous injected of tails of the healthy mice. The distribution and strength of the DiR fluorescence in tissues are observed and recorded by the animal living body imagery at different time points.

Take `CCCCCCCCCCCCCCCCCCN1/C(=C/C=C/C=C/C=C/C2=[N+](CCCCCCCCCCCCCCCCCC)c3ccccc3C2(C)C)C(C)(C)c2ccccc21.[I-]` [DiR solution]: the “entry into the brain / blood-brain barrier penetration” value is given as “cannot enter the brain”. Further, the “fluorescence distribution (DiR) in tissues” value (in-vivo imaging at different time points) is “concentrated in the liver”.
